Assay results taken from the Kinase Knowledgebase extract (Sharma et al. 2016).
pIC50: −log10 of the molar value.

Legend:
Experiment in all cases: Enzyme Assay
PIK3CA (human) = PIK3CA (human) (UniProt P42336)
PIK3CB (Human) = PIK3CB (Human) (UniProt P42338)
PIK3CG (human) = PIK3CG (human) (UniProt P48736)
PIK3CD (Human) = PIK3CD (Human) (UniProt O00329)
Chain of PIK3CD (Human) (O00329 whole entry, looked up): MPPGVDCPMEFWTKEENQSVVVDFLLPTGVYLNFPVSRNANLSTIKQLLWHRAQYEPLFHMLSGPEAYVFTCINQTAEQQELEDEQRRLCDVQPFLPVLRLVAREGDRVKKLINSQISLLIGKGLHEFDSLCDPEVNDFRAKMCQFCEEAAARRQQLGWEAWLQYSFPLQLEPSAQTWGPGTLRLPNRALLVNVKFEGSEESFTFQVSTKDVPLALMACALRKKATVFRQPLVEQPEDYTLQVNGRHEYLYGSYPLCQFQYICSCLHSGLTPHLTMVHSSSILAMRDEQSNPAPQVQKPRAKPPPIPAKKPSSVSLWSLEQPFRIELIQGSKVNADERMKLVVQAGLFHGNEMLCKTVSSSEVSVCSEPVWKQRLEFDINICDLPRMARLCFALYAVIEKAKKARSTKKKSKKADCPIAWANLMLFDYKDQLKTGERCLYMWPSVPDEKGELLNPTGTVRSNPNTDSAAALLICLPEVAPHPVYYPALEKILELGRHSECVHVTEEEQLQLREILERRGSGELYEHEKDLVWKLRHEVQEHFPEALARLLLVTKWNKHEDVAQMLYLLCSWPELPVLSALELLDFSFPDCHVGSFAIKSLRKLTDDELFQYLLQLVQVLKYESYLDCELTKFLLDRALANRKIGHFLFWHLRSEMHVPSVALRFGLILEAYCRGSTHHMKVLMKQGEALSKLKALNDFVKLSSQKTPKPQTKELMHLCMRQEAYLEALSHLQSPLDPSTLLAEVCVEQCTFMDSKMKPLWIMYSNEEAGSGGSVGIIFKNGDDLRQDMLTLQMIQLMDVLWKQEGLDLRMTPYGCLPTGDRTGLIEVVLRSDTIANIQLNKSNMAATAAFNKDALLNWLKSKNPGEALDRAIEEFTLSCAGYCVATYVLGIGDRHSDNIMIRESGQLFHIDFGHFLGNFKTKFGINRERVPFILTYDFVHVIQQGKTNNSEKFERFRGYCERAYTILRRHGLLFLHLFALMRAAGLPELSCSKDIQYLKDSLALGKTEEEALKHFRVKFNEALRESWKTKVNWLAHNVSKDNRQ

Chain of PIK3CG (human) (P48736 whole entry, looked up): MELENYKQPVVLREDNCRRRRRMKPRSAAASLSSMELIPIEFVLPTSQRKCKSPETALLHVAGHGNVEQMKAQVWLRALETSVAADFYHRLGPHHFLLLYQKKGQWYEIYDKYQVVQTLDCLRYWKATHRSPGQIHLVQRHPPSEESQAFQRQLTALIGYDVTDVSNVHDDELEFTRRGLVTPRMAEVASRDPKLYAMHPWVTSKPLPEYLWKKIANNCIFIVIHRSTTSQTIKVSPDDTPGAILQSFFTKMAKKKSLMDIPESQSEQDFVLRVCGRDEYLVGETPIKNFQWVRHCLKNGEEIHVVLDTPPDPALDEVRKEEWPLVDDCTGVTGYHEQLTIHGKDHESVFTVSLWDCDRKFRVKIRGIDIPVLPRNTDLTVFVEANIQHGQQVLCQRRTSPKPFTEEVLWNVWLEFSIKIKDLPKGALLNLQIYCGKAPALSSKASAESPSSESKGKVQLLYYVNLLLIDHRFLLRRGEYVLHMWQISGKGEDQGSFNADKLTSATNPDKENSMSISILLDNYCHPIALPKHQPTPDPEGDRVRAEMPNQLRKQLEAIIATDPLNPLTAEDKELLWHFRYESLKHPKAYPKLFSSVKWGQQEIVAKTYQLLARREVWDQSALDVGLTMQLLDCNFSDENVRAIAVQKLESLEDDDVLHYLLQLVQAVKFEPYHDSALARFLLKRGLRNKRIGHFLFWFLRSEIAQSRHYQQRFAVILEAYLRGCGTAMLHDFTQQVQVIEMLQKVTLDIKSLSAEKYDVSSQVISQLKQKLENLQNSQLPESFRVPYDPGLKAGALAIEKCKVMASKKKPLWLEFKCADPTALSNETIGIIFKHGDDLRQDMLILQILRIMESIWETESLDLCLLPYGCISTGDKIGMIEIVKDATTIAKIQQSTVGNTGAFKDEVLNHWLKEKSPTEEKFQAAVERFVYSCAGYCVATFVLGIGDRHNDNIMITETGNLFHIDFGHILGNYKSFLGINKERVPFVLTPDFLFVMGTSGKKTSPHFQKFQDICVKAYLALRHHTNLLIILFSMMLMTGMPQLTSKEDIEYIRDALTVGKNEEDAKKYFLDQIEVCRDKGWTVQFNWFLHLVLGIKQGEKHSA
Chain of PIK3CA (human) (P42336 whole entry, looked up): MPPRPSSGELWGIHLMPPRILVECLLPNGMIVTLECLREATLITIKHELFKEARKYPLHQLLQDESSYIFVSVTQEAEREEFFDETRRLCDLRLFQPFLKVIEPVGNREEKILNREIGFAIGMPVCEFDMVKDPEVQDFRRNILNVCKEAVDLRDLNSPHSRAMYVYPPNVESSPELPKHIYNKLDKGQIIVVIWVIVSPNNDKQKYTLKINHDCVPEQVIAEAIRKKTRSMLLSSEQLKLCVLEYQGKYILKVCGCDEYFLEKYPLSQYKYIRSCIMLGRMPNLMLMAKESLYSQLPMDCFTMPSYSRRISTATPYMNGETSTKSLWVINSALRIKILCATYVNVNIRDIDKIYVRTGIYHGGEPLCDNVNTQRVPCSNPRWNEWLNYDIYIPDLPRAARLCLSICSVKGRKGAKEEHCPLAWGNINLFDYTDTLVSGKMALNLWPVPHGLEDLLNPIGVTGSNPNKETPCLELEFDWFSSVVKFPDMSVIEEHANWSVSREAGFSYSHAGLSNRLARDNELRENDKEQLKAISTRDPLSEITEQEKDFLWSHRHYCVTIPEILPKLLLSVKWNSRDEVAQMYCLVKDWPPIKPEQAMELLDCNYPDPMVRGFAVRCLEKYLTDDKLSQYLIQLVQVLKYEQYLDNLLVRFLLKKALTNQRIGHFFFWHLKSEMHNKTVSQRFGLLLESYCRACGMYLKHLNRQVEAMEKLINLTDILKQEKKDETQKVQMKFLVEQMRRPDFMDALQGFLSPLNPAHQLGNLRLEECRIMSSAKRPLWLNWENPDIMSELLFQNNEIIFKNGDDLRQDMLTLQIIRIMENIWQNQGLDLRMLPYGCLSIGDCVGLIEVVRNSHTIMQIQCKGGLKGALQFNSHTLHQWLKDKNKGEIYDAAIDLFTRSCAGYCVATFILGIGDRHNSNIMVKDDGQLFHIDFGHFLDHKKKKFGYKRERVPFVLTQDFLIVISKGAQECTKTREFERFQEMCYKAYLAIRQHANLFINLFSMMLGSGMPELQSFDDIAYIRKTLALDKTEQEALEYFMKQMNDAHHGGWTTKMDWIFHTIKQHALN
Chain of PIK3CB (Human) (P42338 whole entry, looked up): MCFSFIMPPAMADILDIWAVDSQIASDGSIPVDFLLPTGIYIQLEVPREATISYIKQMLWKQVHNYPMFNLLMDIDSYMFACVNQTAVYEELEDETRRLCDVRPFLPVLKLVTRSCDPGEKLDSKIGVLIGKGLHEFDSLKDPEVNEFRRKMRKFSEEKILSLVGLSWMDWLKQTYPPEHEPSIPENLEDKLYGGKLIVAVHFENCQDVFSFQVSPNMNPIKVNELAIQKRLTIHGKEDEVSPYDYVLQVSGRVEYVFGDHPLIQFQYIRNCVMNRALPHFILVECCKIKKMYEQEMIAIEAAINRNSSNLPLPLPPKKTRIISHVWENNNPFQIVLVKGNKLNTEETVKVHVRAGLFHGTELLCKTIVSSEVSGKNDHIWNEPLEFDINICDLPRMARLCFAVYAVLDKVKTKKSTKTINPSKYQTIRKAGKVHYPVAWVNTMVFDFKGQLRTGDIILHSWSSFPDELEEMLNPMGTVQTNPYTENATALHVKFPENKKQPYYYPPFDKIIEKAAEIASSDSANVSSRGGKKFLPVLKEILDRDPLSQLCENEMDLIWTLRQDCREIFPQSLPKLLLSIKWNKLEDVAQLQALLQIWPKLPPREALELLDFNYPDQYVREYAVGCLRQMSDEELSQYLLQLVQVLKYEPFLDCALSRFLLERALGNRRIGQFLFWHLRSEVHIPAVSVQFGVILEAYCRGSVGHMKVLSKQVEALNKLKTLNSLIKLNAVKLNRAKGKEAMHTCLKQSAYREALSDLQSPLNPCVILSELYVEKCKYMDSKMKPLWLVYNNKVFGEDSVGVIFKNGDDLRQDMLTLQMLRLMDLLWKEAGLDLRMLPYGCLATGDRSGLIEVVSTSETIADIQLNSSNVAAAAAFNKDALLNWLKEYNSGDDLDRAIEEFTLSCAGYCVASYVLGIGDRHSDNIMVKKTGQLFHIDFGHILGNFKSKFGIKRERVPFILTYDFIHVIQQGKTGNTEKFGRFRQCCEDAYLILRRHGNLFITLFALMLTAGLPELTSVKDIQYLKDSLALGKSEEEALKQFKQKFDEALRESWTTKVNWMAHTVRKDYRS

Compound | pIC50 (PIK3CA (human)) | pIC50 (PIK3CB (Human)) | pIC50 (PIK3CG (human)) | pIC50 (PIK3CD (Human))
Cc1cccc2cc(Cn3nc(-c4cc(O)cc(F)c4)c4c(N)ncnc43)n(C(C)C)c(=O)c12 | – | 6.00 to 7.00 | 6.00 to 7.00 | –
C=Cc1nn(Cc2cc3cccc(C)c3c(=O)n2-c2ccccc2C)c2ncnc(N)c12 | < 5.00 | < 5.00 | 6.00 to 7.00 | –
COc1cc(-c2nn(Cc3cc4cccc(C)c4c(=O)n3-c3ccccc3F)c3ncnc(N)c23)ccc1Cl | < 5.00 | < 5.00 | 6.00 to 7.00 | –
Cc1ccccc1-n1c(Cn2nc(C#CCO)c3c(N)ncnc32)cc2cccc(C)c2c1=O | < 5.00 | < 5.00 | 6.00 to 7.00 | –
Cc1cccc2cc(Cn3nc(C#C[C@@H](C)O)c4c(N)ncnc43)n(C3CC3)c(=O)c12 | < 5.00 | 6.00 to 7.00 | 6.00 to 7.00 | –
Cc1ccccc1-n1c(Cn2nc(C=CC(=O)N3CCOCC3)c3c(N)ncnc32)cc2cccc(C)c2c1=O | < 5.00 | < 5.00 | < 5.00 | 6.00 to 7.00
Cc1cccc2cc([C@H](C)Nc3nc(N)ncc3F)n(-c3ccccc3)c(=O)c12 | < 5.00 | < 5.00 | 6.00 to 7.00 | > 7.00
Cc1cccnc1-n1c(Cn2nc(-c3cccc(O)c3)c3c(N)ncnc32)cc2cccc(C)c2c1=O | < 5.00 | < 5.00 | 6.00 to 7.00 | –
Cc1cccc2cc(Cn3nc(I)c4c(N)ncnc43)n(-c3ccccc3OCCN3CCOCC3)c(=O)c12 | < 5.00 | < 5.00 | 6.00 to 7.00 | –
Cc1cccc(C)c1-n1c(CNc2ncnc3[nH]cnc23)cc2cccc(C)c2c1=O | < 5.00 | < 5.00 | 6.00 to 7.00 | > 7.00
COc1ccccc1-n1c(Cn2nc(I)c3c(N)ncnc32)cc2cccc(C)c2c1=O | < 5.00 | < 5.00 | 6.00 to 7.00 | –
Cc1cccc2cc(Cn3nc(-c4cccc(O)c4)c4c(N)ncnc43)n(-c3ccccc3F)c(=O)c12 | < 5.00 | < 5.00 | 6.00 to 7.00 | –
C=C(C)c1nn(Cc2cc3cccc(C)c3c(=O)n2-c2ccccc2)c2ncnc(N)c12 | < 5.00 | – | 6.00 to 7.00 | > 7.00
CCC(Nc1ncnc2[nH]cnc12)c1cc2cccc(C)c2c(=O)n1-c1ccccc1C (centres undefined) | < 5.00 | – | 6.00 to 7.00 | > 7.00
COc1ccccc1-n1c(Cn2nc(C#C[C@@H](C)O)c3c(N)ncnc32)cc2cccc(C)c2c1=O | < 5.00 | < 5.00 | 6.00 to 7.00 | –
Cc1cccc2cc(Cn3nc(-c4cnn(CCO)c4)c4c(N)ncnc43)n(-c3ccccc3F)c(=O)c12 | < 5.00 | < 5.00 | 6.00 to 7.00 | –

Compound | pIC50 (PIK3CA (human)) | pIC50 (PIK3CB (Human)) | pIC50 (PIK3CG (human)) | pIC50 (PIK3CD (Human))
Cc1ccccc1-n1c(Cn2nc(-c3cnn(C)c3)c3c(N)ncnc32)cc2cccc(C)c2c1=O | < 5.00 | < 5.00 | 6.00 to 7.00 | –
Cc1ccccc1-n1c(Cn2nc(-c3cnn(CCO)c3)c3c(N)ncnc32)cc2cccc(C)c2c1=O | < 5.00 | < 5.00 | 6.00 to 7.00 | –
Cc1cccc2cc(Cn3nc(-c4cccc(Cl)c4)c4c(N)ncnc43)n(-c3ccccc3F)c(=O)c12 | – | < 5.00 | < 5.00 | –
Cc1cccc2cc(Cn3nc(C#C[C@@H](C)O)c4c(N)ncnc43)n(-c3ccccc3Cl)c(=O)c12 | < 5.00 | < 5.00 | 6.00 to 7.00 | –
Cc1cccc2cc(C(C)Nc3ncnc4[nH]cnc34)n(-c3c(F)cccc3F)c(=O)c12 (centres undefined) | < 5.00 | < 5.00 | 6.00 to 7.00 | > 7.00
Cc1ccccc1-n1c(Cn2nc(C(N)=O)c3c(N)ncnc32)cc2cccc(C)c2c1=O | < 5.00 | – | 6.00 to 7.00 | 6.00 to 7.00
COc1ccc(-c2nn(Cc3cc4cccc(C)c4c(=O)n3-c3ccccc3F)c3ncnc(N)c23)cc1OC | < 5.00 | – | 6.00 to 7.00 | 6.00 to 7.00
CNc1ncc(Cl)c(N[C@@H](C)c2cc3cccc(C)c3c(=O)n2-c2ccccc2)n1 | < 5.00 | – | 6.00 to 7.00 | 6.00 to 7.00
Cc1ccccc1-n1c(Cn2nc(-c3cccc(F)c3)c3c(N)ncnc32)cc2cccc(C)c2c1=O | < 5.00 | < 5.00 | 6.00 to 7.00 | –
Cc1cccc2cc(Cn3nc(C=C4CCNC4=O)c4c(N)ncnc43)n(-c3ccccc3F)c(=O)c12 | < 5.00 | < 5.00 | < 5.00 | –
Cc1cccc2cc([C@H](C)Nc3nc(F)nc4[nH]cnc34)n(C3CC3)c(=O)c12 | – | > 7.00 | 6.00 to 7.00 | > 7.00
Cc1cccc2cc(Cn3nc(-c4cccc(O)c4)c4c(N)ncnc43)n(-c3ccccc3OCCN3CCOCC3)c(=O)c12 | < 5.00 | < 5.00 | 6.00 to 7.00 | –
Cc1cccnc1-n1c(Cn2nc(-c3cc(O)cc(F)c3)c3c(N)ncnc32)cc2ccccc2c1=O | < 5.00 | < 5.00 | 6.00 to 7.00 | –
Cc1cccc2cc([C@H](C)Nc3ncnc4[nH]nc(Cl)c34)n(C3CC3)c(=O)c12 | < 5.00 | 6.00 to 7.00 | 6.00 to 7.00 | > 7.00
Cc1cccc2cc([C@H](C)Nc3nc(N)ncc3Cl)n(C3CC3)c(=O)c12 | < 5.00 | 6.00 to 7.00 | 6.00 to 7.00 | > 7.00

Now from value to molecule:

pIC50 (PIK3CA (human)) | pIC50 (PIK3CB (Human)) | pIC50 (PIK3CG (human)) | pIC50 (PIK3CD (Human)) | Compound
< 5.00 | < 5.00 | 6.00 to 7.00 | – | Cc1cccc2cc(Cn3nc(C#C[C@@H](C)O)c4c(N)ncnc43)n(-c3ccccc3F)c(=O)c12
< 5.00 | < 5.00 | 6.00 to 7.00 | – | Cc1cccc2cc(Cn3nc(C#CCO)c4c(N)ncnc43)n(-c3ccccc3F)c(=O)c12
< 5.00 | < 5.00 | 6.00 to 7.00 | – | Cc1ccccc1-n1c(Cn2nc(-c3cccc(Cl)c3)c3c(N)ncnc32)cc2cccc(C)c2c1=O
< 5.00 | < 5.00 | 6.00 to 7.00 | 6.00 to 7.00 | Cc1ccccc1-n1c(Cn2nc(C#CC3CC3)c3c(N)ncnc32)cc2cccc(C)c2c1=O
< 5.00 | < 5.00 | 6.00 to 7.00 | 6.00 to 7.00 | Cc1cccc2cc([C@H](C)Nc3cc(N)nc(N)n3)n(-c3ccccc3)c(=O)c12
< 5.00 | > 7.00 | 6.00 to 7.00 | > 7.00 | Cc1cccc2cc([C@H](C)Nc3nc(Cl)nc4[nH]cnc34)n(C3CC3)c(=O)c12
< 5.00 | < 5.00 | 6.00 to 7.00 | – | Cc1ccccc1-n1c(Cn2nc(-c3ccc(F)cc3)c3c(N)ncnc32)cc2cccc(C)c2c1=O
< 5.00 | < 5.00 | 6.00 to 7.00 | – | Cc1cccc2cc(Cn3nc(-c4cn[nH]c4)c4c(N)ncnc43)n(-c3ccccc3Cl)c(=O)c12
< 5.00 | < 5.00 | 6.00 to 7.00 | > 7.00 | Cc1cccc2cc(C(C)Nc3ncnc4[nH]cnc34)n(-c3cc(F)cc(F)c3)c(=O)c12 (centres undefined)
< 5.00 | < 5.00 | 6.00 to 7.00 | – | Cc1cccc2cc(Cn3nc(-c4ccc(F)c(O)c4)c4c(N)ncnc43)n(-c3ccccc3F)c(=O)c12
– | < 5.00 | 6.00 to 7.00 | – | Cc1cccc2cc(Cn3nc(I)c4c(N)ncnc43)n(-c3ccccc3Cl)c(=O)c12
< 5.00 | < 5.00 | 6.00 to 7.00 | > 7.00 | Cc1cccc2cc([C@H](C)Nc3ncnc4ccccc34)n(-c3ccccc3)c(=O)c12
< 5.00 | < 5.00 | 6.00 to 7.00 | 6.00 to 7.00 | CC(=O)Nc1nc2cc(-c3nn(Cc4cc5cccc(C)c5c(=O)n4-c4ccccc4)c4ncnc(N)c34)ccc2s1
– | < 5.00 | 6.00 to 7.00 | – | Cc1ccncc1-n1c(Cn2nc(I)c3c(N)ncnc32)cc2cccc(C)c2c1=O
< 5.00 | < 5.00 | 6.00 to 7.00 | – | Cc1ccccc1-n1c(Cn2nc(I)c3c(N)nccc32)cc2cccc(C)c2c1=O
< 5.00 | < 5.00 | 6.00 to 7.00 | – | Cc1cccc2cc(Cn3nc(-c4cn[nH]c4)c4c(N)ncnc43)n(-c3cccc(F)c3)c(=O)c12
